In article PMC4965013, “Open Source Drug Discovery with the Malaria Box Compound Collection for Neglected Diseases and Beyond” (PLoS Pathogens, 2016):

Columns and labels:
[1] = test system: P. falciparum 3D7 trophozoites; assay: Metabolomic fingerprint profiling LC-MS; format: cell-based, Plasmodium falciparum; parameters: UDP-D-glucose / ADP-D-glucose: unit not given here; conditions: for Acetyllysine / N-acetyl-L-ornithine / N-carbamoyl-L-aspartate / NADPH / dAMP / dCMP / dTDP / dTMP / dTTP / dihydroorotate / orotate / DLH / DLS/SDL/SID / PD / PEE / PVNF / 3-phosphoglycerate / ADP-D-glucose / ATP / CDP / D-sedoheptulose-1/7-phosphate / FAD / GMP / NAD+ / NADP+ / Octoluse Bisphosphate / Pyroglutamic acid / UDP-D-glucose / UDP-D-glucuronate / UDP-N-acetyl-glucosamine / UDP / UMP / UTP / a-ketoglutarate / citrate/isocitrate / cytidine / dATP / dGMP/AMP / fumarate / glucose-1/6-phosphate / glycerate / guanine / guanosine / hypoxanthine / indole / inosine / nicotinate / ornithine / phosphoenolpyruvate / pyruvate / ribose-phosphate / sarcosine/alanine / sn-glycerol-3-phosphate / succinate/methylmalonic acid / uridine / xanthosine: S2 Table Metabolomics; for Acetyllysine: metabolite Acetyllysine; for N-acetyl-L-ornithine: metabolite N-acetyl-L-ornithine; for N-carbamoyl-L-aspartate: metabolite N-carbamoyl-L-aspartate; for NADPH: metabolite NADPH; for dAMP: metabolite dAMP; for dCMP: metabolite dCMP; for dTDP: metabolite dTDP; for dTMP: metabolite dTMP; for dTTP: metabolite dTTP; for dihydroorotate: metabolite dihydroorotate; for orotate: metabolite orotate; for DLH: peptide DLH; for DLS/SDL/SID: peptide DLS/SDL/SID; for PD: peptide PD; for PEE: peptide PEE; for PVNF: peptide PVNF; for 3-phosphoglycerate: metabolite 3-phosphoglycerate; for ADP-D-glucose: metabolite ADP-D-glucose; for ATP: metabolite ATP; for CDP: metabolite CDP; for CDP / D-sedoheptulose-1/7-phosphate / GMP / Octoluse Bisphosphate / UDP / UMP / UTP / citrate/isocitrate / dGMP/AMP / fumarate / glucose-1/6-phosphate / glycerate / guanine / guanosine / inosine / pyruvate / sarcosine/alanine / succinate/methylmalonic acid / uridine / xanthosine: change in metabolite level after compound treatment; for D-sedoheptulose-1/7-phosphate: metabolite D-sedoheptulose-1/7-phosphate; for FAD: metabolite FAD; for GMP: metabolite GMP; for NAD+: metabolite NAD+; for NADP+: metabolite NADP+; for Octoluse Bisphosphate: metabolite Octoluse Bisphosphate; for Pyroglutamic acid: metabolite Pyroglutamic acid; for UDP-D-glucose: metabolite UDP-D-glucose; for UDP-D-glucuronate: metabolite UDP-D-glucuronate; for UDP-N-acetyl-glucosamine: metabolite UDP-N-acetyl-glucosamine; for UDP: metabolite UDP; for UMP: metabolite UMP; for UTP: metabolite UTP; for a-ketoglutarate: metabolite a-ketoglutarate; for citrate/isocitrate: metabolite citrate/isocitrate; for cytidine: metabolite cytidine; for dATP: metabolite dATP; for dGMP/AMP: metabolite dGMP/AMP; for fumarate: metabolite fumarate; for glucose-1/6-phosphate: metabolite glucose-1/6-phosphate; for glycerate: metabolite glycerate; for guanine: metabolite guanine; for guanosine: metabolite guanosine; for hypoxanthine: metabolite hypoxanthine; for indole: metabolite indole; for inosine: metabolite inosine; for 2_3-Diphosphoglyceric acid / 4-phosphopantothenate / 6-phospho-D-gluconate / FMN / IMP / Pyrophosphate / Sedoheptoluse bisphosphate / cyclic-AMP / glutathione disulfide / lactate / myo-inositol: metabolite level change after treatment; for nicotinate: metabolite nicotinate; for ornithine: metabolite ornithine; for phosphoenolpyruvate: metabolite phosphoenolpyruvate; for pyruvate: metabolite pyruvate; for ribose-phosphate: metabolite ribose-phosphate; for sarcosine/alanine: metabolite sarcosine/alanine; for sn-glycerol-3-phosphate: metabolite sn-glycerol-3-phosphate; for succinate/methylmalonic acid: metabolite succinate/methylmalonic acid; for uridine: metabolite uridine; for xanthosine: metabolite xanthosine
P. falciparum = assay: EC50 listed in S2 Table Metabolomics (used to set the concentration tested); format: cell-based; conditions: Plasmodium falciparum; EC50 used for Factor_XEC50 in metabolomics; read-out: EC50_nM

## COc1ccc(C(C)=O)cc1N1C(=O)C2C(C1=O)C1(c3ccccc3)C(=O)C2(c2ccccc2)C(c2ccc(C)cc2)=C1c1ccc(C)cc1 (stereo not drawn) [MMV007695]
[1]
  Acetyllysine: -0.2737
  N-acetyl-L-ornithine: -0.4583
  N-carbamoyl-L-aspartate: 0.3458
  NADPH: 1.835
  dAMP: 0.454
  dCMP: -0.0001746
  dTDP: 0.6225
  dTMP: 0.1739
  dTTP: 0.01162
  dihydroorotate: -0.0741
  orotate: 0.786
  DLH: 0.4365
  DLS/SDL/SID: 0.2312
  PD: -1.42
  PEE: 0.3408
  PVNF: 0.2956
  3-phosphoglycerate: -0.5907
  ADP-D-glucose: 0.2728
  ATP: 0.4735
  CDP: 0.708
  D-sedoheptulose-1/7-phosphate: 1.674
  FAD: 0.07228
  GMP: -0.9101
  NAD+: 0.2072
  NADP+: 0.5403
  Octoluse Bisphosphate: -1.5013
  Pyroglutamic acid: 0.5983
  UDP-D-glucose: 0.2909
  UDP-D-glucuronate: 0.7314
  UDP-N-acetyl-glucosamine: 0.05292
  UDP: 0.6476
  UMP: -1.868
  UTP: 0.1535
  a-ketoglutarate: 0.5943
  citrate/isocitrate: 1.421
  cytidine: 0.7161
  dATP: 0.1897
  dGMP/AMP: 0.2576
  fumarate: -0.8988
  glucose-1/6-phosphate: -0.6568
  glycerate: -0.4271
  guanine: 0.5906
  guanosine: -0.9684
  hypoxanthine: 0.7986
  indole: 0.2572
  inosine: -0.5212
  2_3-Diphosphoglyceric acid: -0.9184
  4-phosphopantothenate: -0.9898
  6-phospho-D-gluconate: -0.8607
  FMN: -0.08531
  IMP: -0.684
  Pyrophosphate: -1.54
  Sedoheptoluse bisphosphate: -1.405
  cyclic-AMP: -0.504
  glutathione disulfide: -0.8249
  lactate: -1.404
  myo-inositol: -3.565
  nicotinate: 1.458
  ornithine: -0.113
  phosphoenolpyruvate: -0.01223
  pyruvate: -0.001929
  ribose-phosphate: -0.0001746
  sarcosine/alanine: -1.812
  sn-glycerol-3-phosphate: -1.169
  succinate/methylmalonic acid: 0.009176
  uridine: 0.3917
  xanthosine: 0.304
P. falciparum
  EC50: 179 nM

## Cc1cc(C)c2c(c1)OCN(Cc1ccccc1Cl)C2 [MMV006558]
[1]
  Acetyllysine: -2.938
  N-acetyl-L-ornithine: -1.964
  N-carbamoyl-L-aspartate: -1.702
  NADPH: 1.445
  dAMP: -0.9651
  dCMP: -1.6
  dTDP: -0.8236
  dTMP: -0.6183
  dTTP: -0.3776
  dihydroorotate: -0.3745
  orotate: -1.522
  DLH: -1.617
  DLS/SDL/SID: -1.662
  PD: -0.9196
  PEE: -0.2697
  PVNF: -2.308
  3-phosphoglycerate: 0.4267
  ADP-D-glucose: 0.5003
  ATP: -0.07449
  CDP: -0.458
  D-sedoheptulose-1/7-phosphate: -0.2481
  FAD: -0.09577
  GMP: -0.6278
  NAD+: -0.187
  NADP+: 0.696
  Octoluse Bisphosphate: 0.1942
  Pyroglutamic acid: -0.3768
  UDP-D-glucose: -0.01001
  UDP-D-glucuronate: -0.03433
  UDP-N-acetyl-glucosamine: -0.1316
  UDP: -0.1918
  UMP: -1.063
  UTP: -0.2178
  a-ketoglutarate: -0.938
  citrate/isocitrate: -0.4783
  cytidine: 0.109
  dATP: -0.2852
  dGMP/AMP: -0.5349
  fumarate: -0.8198
  glucose-1/6-phosphate: -0.2057
  glycerate: -0.7466
  guanine: -1.035
  guanosine: -2.479
  hypoxanthine: -0.7995
  indole: -0.5445
  inosine: -0.9523
  2_3-Diphosphoglyceric acid: 0.34
  4-phosphopantothenate: -0.8939
  6-phospho-D-gluconate: 0.2839
  FMN: -0.2862
  IMP: -0.2354
  Pyrophosphate: 0.3685
  Sedoheptoluse bisphosphate: 0.2016
  cyclic-AMP: -0.8187
  glutathione disulfide: -0.2625
  lactate: -0.7314
  myo-inositol: -0.7596
  nicotinate: -0.1344
  ornithine: -0.1775
  phosphoenolpyruvate: 0.3748
  pyruvate: -0.4201
  ribose-phosphate: -0.1559
  sarcosine/alanine: -0.2827
  sn-glycerol-3-phosphate: 0.1135
  succinate/methylmalonic acid: -0.725
  uridine: -1.514
  xanthosine: -1.032
P. falciparum
  EC50: 268 nM

## c1ccc2cc3c(Nc4ccc(N5CCOCC5)cc4)ccnc3cc2c1 [MMV006861]
[1]
  Acetyllysine: 0.001155
  N-acetyl-L-ornithine: 0.1202
  N-carbamoyl-L-aspartate: 0.09461
  NADPH: 0.6132
  dAMP: -0.1929
  dCMP: 0.2768
  dTDP: 0.03656
  dTMP: 0.1106
  dTTP: -0.07535
  dihydroorotate: 0.311
  orotate: -0.21
  DLH: 0.09611
  DLS/SDL/SID: 0.08895
  PD: 0.008487
  PEE: 0.1992
  PVNF: -0.07307
  3-phosphoglycerate: -0.2621
  ADP-D-glucose: 0.04555
  ATP: 0.1894
  CDP: 0.09878
  D-sedoheptulose-1/7-phosphate: 0.1691
  FAD: 0.1498
  GMP: 0.6017
  NAD+: 0.04038
  NADP+: 0.01746
  Octoluse Bisphosphate: 0.06917
  Pyroglutamic acid: 0.7013
  UDP-D-glucose: -0.003086
  UDP-D-glucuronate: -0.03493
  UDP-N-acetyl-glucosamine: 0.008052
  UDP: 0.1461
  UMP: -0.13
  UTP: -0.06454
  a-ketoglutarate: -0.4694
  citrate/isocitrate: -0.2815
  cytidine: -0.002725
  dATP: -0.03123
  dGMP/AMP: -0.0595
  fumarate: -0.1611
  glucose-1/6-phosphate: 0.03738
  glycerate: -0.6693
  guanine: -0.08848
  guanosine: -0.211
  hypoxanthine: -0.05987
  indole: -0.08261
  inosine: -0.2117
  2_3-Diphosphoglyceric acid: 0.06563
  4-phosphopantothenate: -0.011
  6-phospho-D-gluconate: -0.02789
  FMN: 0.1069
  IMP: -0.3519
  Pyrophosphate: 0.04971
  Sedoheptoluse bisphosphate: 0.0295
  cyclic-AMP: 0.009655
  glutathione disulfide: -0.09687
  lactate: -0.2479
  myo-inositol: -0.35
  nicotinate: -0.2896
  ornithine: -0.2133
  phosphoenolpyruvate: -0.1566
  pyruvate: -0.275
  ribose-phosphate: -0.01288
  sarcosine/alanine: -0.00437
  sn-glycerol-3-phosphate: -0.1431
  succinate/methylmalonic acid: -0.003665
  uridine: -0.2532
  xanthosine: -0.2406
P. falciparum
  EC50: 251 nM
